# Values quoted from earlier work as cited in patent US7368441B2, “Method of increasing intracellular concentrations of phosphate and increasing the force of muscular contractions” (Aplodan Formulations Ltd., priority 2006, dated 2008).
# Like-named read-outs stand apart in the source and are kept apart here.
# Tests used:
# [1] = in vitro
# [2] = in vivo
# [3] = patients with inadequate coronary blood flow
# [4] = unaffected in placebo group
# [5] = alkaline and acidic solutions
# [6] = administration in humans
# [7] = elderly subjects
# [8] = clinical trials
# [9] = oral administration, test animals, at 48 hours
structure (smiles),measurement,setting,value
CN(CCOP(=O)(O)O)C(=N)N [2-(carbamimidoyl-methyl-amino)ethoxyphosphonic acid],dephosphorylation to creatine,[1]; blood and muscle,less so
same,dephosphorylation to creatine,"[1]; kidney, intestine and liver",dephosphorylated to creatine to some degree
same,tolerability / side effects,[2],well tolerated and without side effects
same,14C radio-labeled compound found in skeletal muscle,"Guinea-Pig, intravenous, intramuscular and oral administration",Significant amounts
same,duration of more constant level in the body following administration,oral administration,about 15 hours
same,time after which level in the body begins to decrease,oral administration,33 h
same,cardiac parameters,[3],improve cardiac parameters
same,hand strength,[4],improved
same,stability in solution,[5],stable in both alkaline and acidic solutions
same,urine levels of creatinine,[6],increases urine levels of creatinine
same,muscular performance,[7],improved muscular performance
same,muscle development and capacity to perform physical activity,[8],improve muscle development and increase the capacity to perform physical activity
same,absorption by the intestine,[9],about 60%
